Entries after “also recorded” stand apart in the source; their conditions may differ.
What was measured:
[1] = tested on: MOLM14-FLT3-ITD(D835Y) acute myeloid leukemia cells; assay: AML efficacy study in mice engrafted with MOLM14-FLT3-ITD(D835Y); assay type: in vivo
Experimental: Female, NSG-SGM3 (NOD.Cg-Prkdc^scid Il2^tm1Wjl Tg(CMV-IL3, CSF2, KITLG)1Eav/MloySzJ) mice were intravascularly engrafted with MOLM14-FLT3-ITD(D835Y) acute myeloid leukemia cells. Injection of leukemia cells was performed on 3/21/2022. Mice were randomized and dosing began three weeks following engraftment. […] Mice experiencing clinical signs prior to scheduled end-date, including weight loss, lethargy, hunched posture, ruffled coat, or hind limb paralysis were humanely euthanized.
Bone marrow aspirates were performed when the initial vehicle control mice became clinical, 9 days following initiation of treatment. Aspirates were centrifuged, treated with RBC lysis buffer, resuspended in 250 μL PBS, and two cytospin chamber slides were loaded with 125 μL. Cytospins were used to create two cytology slides per mouse: one for Wright-Giemsa staining and the other for huCD45 immunocytochemistry, if needed. Cytology slides were graded according to the number of leukemic cells identified per 400× field as follows: 0, none; 1, 1-5 CD45+ cells; 2, 6-10 CD45+ cells; 3, 11-15 CD45+ cells; 4, 16-30 CD45+ cells; 5, >30 CD45+ cells.
At necropsy, sections of femur, tibia, vertebra, and sternum were evaluated for the presence of leukemic cells using H&E and CD45 immunohistochemistry, if needed. Grades for long bones, vertebrae, and sternum were recorded as follows: 0, no leukemic cells; 1, <1% of cells; 2, 1-10% of cells; 3, 10-50% of bone marrow; 4, >50% of bone marrow. Sums of the individual grades were taken for each mouse (range 0 to 12).
Leukemic burden was measured in NSGS mice xenografted with MOLM14 FLT3-ITD(D835Y) and quantified using bone marrow (BM) aspirates. An initial BM aspirate, accompanied by peripheral CBC evaluation (submandibular samples), was collected at the time that clinical signs first appeared in control mice to verify AML engraftment prior to the start of drug dosing. Cytospin chambers were used to create two cytology slides per bone marrow sample. Aspirate samples were of high quality for 85% of samples. A semi-quantitative grading system was applied to each bone marrow aspirate according to the number of leukemic cells identified per 400× field as follows:
• 1: 1-5 leukemic cells (per HPF) • 2: 6-10 leukemic cells • 3: 11-15 leukemic cells • 4: 16-30 leukemic cells • 5: >30 leukemic cells
All mice had evidence of leukemia within the bone marrow aspirate. Histopathology scores we re-taken for long bones (femur and tibia), vertebrae, and sternum as follows: 0, no leukemic cells; 1, <1% of cells; 2, 1-10% of cells; 3, 10-50% of bone marrow; 4, >50% of bone marrow. Scores were totaled (range: 0 to 12) and plotted by group at necropsy. […] To incorporate survival, the bone marrow grade was divided by the time on test (FIG. 10).

[2] = tested on: MOLM14 (D835Y) cells; assay: Combination drug screening, Cell Titer Glo, MOLM14 (D835Y) cells; conditions: FLT3 mutant setting (ITD-D835Y cells), Cell Titer Glo, 48 hours;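 also: MOLM14 cells with FLT3 ITD plus D835Y, 500 per well in 1536-well plates, 10-point dose ranges, luminescent viability after 48 h, negative Excess HSA indicates synergy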
Experimental: Briefly, 10 nL of the compound shown below was acoustically dispensed into 1536-well white polystyrene tissue culture-treated plates with an Echo 550 acoustic liquid handler (Labcyte). Cells were then added to compound-containing plate at a density of 500-cells/well in 5 μL of medium. A 6-point or 10-point custom concentration range was used for all listed drugs. Plates were incubated for 48 hours at standard incubator conditions covered by a stainless steel gasketed lid to prevent evaporation. 48h post compound addition, 3 μL of Cell Titer Glo (Promega) were added to each well and plates were incubated at room temperature for 15 minutes with the stainless-steel lid in place. Luminescence readings were taken using a Viewlux imager (PerkinElmer) with a 2 second exposure time per plate.
A smaller concentration indicates higher potency to synergize with Venetoclax.
A smaller concentration indicates higher potency to synergize with azacitidine.
This is a cell line that has the FLT3 ITD mutation but also the FLT3 D835Y kinase domain mutation. […] Excess HSA is a measure of synergy vs. additivity or antagonism, wherein a negative Excess HSA value is indicative of synergy.

[3] = target: hERG (Homo sapiens, UniProt Q12809); assay: Window to the hERG IC50 at the dose studied (FIG. 9B); conditions: at the dose studied (30 mg/kg, mice)
Chain of hERG (Q12809 whole entry): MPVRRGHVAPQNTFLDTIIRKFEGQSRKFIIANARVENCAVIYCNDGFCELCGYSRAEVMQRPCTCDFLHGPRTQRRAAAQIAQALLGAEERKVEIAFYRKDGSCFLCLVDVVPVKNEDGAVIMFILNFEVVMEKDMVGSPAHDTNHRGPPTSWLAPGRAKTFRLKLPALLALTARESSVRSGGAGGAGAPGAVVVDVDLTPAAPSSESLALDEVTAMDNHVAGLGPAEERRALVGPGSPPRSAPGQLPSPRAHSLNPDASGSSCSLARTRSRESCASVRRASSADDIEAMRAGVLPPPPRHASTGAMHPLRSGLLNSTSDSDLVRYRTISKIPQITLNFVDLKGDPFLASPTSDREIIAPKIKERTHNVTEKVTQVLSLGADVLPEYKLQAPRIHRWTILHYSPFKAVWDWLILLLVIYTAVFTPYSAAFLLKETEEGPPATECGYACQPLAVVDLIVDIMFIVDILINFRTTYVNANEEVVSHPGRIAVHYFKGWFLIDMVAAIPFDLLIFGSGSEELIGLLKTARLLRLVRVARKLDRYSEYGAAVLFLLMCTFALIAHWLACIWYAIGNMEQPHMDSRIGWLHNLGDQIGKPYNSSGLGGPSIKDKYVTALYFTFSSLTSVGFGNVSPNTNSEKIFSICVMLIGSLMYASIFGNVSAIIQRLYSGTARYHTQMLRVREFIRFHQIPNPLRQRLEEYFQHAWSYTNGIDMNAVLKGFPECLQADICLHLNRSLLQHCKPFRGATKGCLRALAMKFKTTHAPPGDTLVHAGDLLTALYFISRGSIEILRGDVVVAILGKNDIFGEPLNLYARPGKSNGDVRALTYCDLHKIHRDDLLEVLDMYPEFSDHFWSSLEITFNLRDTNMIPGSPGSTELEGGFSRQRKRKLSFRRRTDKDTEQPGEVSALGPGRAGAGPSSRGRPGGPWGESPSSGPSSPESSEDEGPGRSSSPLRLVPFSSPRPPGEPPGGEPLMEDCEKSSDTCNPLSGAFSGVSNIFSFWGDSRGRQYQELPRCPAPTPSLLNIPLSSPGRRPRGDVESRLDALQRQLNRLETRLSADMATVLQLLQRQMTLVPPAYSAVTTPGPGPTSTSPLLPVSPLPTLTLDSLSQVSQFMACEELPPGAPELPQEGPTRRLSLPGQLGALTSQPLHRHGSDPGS

[4] = tested on: THP1 cells; assay: Combination drug screening, Cell Titer Glo, THP1 cells; conditions: FLT3 WT setting (THP1 cells), Cell Titer Glo, 48 hours;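 also: luminescence read out in 1536-well plates seeded with 500 THP1 cells per well, each drug spanning a 10-point concentration range in the combination matrix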
[5] = tested on: MOLM14-FLT3-ITD (D835Y) AML cells; assay: Caspase-Glo 3/7 apoptosis assay, time course; assay type: cell-based

## COc1cc2ncc(-c3nc(N[C@@H]4CCCNC4)c(F)cc3F)n2nc1C1CC1 [Compound 106, (R)-6-(6-cyclopropyl-7-methoxyimidazo[1,2-b]pyridazin-3-yl)-3,5-difluoro-N-(piperidin-3-yl)pyridin-2-amine]
[1]; 30 mg/kg orally once/day M-F, 90 days, NSG-SGM3 mice
  survival: Significant survival differences; also recorded: enhanced survival in mice compared to gilteritinib and CA-4948 (emavusertib); also recorded: improved survival compared to those treated with gilteritinib or emavusertib (CA-4948)
[1]; 30 mg/kg, mice, FIG. 9B
  plasma levels (Cmax and AUC) against comparators: not due to higher plasma levels vs. gilteritinib or emavusertib
[1]; 90 day study, 30 mg/kg
  survival-adjusted leukemic burden (bone marrow grade divided by time on test): decreased scores compared to standard of care F02 (Gilteritinib); also recorded: superior in reducing survival-adjusted leukemic burden
[1]; after 90 days of treatment at 30 mg/kg, study then ended
  survival persisting after withdrawal of the compound: 7 days
[1]; sum of histopathology scores of long bones, vertebrae, sternum (range 0 to 12)
  bone marrow grades (leukemic burden) at necropsy: Decreased bone marrow grades
[2]
  synergy with venetoclax or azacitidine: considerably more potent as a synergistic agent than either Gilteritinib or emavusertib (CA-4948)
[3]
  window to the hERG IC50: larger window to the hERG IC50 than does emavusertib (CA-4948)
[4]
  synergy with venetoclax or azacitidine: considerably more potent as a synergistic agent than either Gilteritinib or emavusertib (CA-4948)
[5]; dose level 6: gilteritinib 25 nM or Compound 106 12 nM with venetoclax 25 nM
  combination activity with venetoclax (apoptosis induction): much stronger than any of the other drug combinations
[5]; dose level 7: 4 nM of Compound 106 and 8 nM of venetoclax
  combination activity with venetoclax (apoptosis induction over 24 hours): high activity
[5]; dose level 7: 4 nM of Compound 106 and 8 nM of venetoclax, four hours
  cells entering apoptosis, combination with venetoclax: about half of the cells enter into apoptosis in four hours
[5]; dose level 8: 1.37 nM of Compound 106 and 2.7 nM of venetoclax
  combination activity with venetoclax (apoptosis induction over 24 hours): high activity
[5]; single agent, 1.37 nM, 12 hours of coverage
  cells stimulated to apoptosis: about 30%
[5]; single agent, even at the lowest dose of 1.37 nM, Caspase-Glo 3/7
  time at which apoptosis starts, single agent: ≤ 12 h
